Test system: VNN1
Experiment: VNN1 expression in HepG2 and HepG2-derived MPs (Western blotting, flow cytometry, QPCR)
Type: cell-based, human
Conditions: HepG2 exposed to 0.25 mM FFA
Procedure: HepG2 were trypsinized and 8×10^5 cells were seeded in a 6-well plate. To knockdown VNN1 or PPARα in hepatocytes, HepG2 were incubated with 50 nM of silencing RNA (siRNA) for VNN1 or PPARα and control siRNA (Ctrl siRNA) dissolved in Lipofectamine 2000 (Life Technologies, Carlsbad, Calif., USA). Transfection was performed according to the manufacturer instructions. After 48 h post transfection, cells were treated with 0.25 mM of palmitic acid for 24 h and microparticles were isolated from the supernatant by ultracentrifugation. The efficiency of transfection has been confirmed in hepatocytes and microparticles by Western blotting as described in the “Protein analysis” paragraph. […] In vivo VNN1 knockdown experiments during experimental NASH were assessed by weekly injection of VNN1 stealthRNA (Life Technology), control siRNA (Ctrl siRNA) or PBS as vehicle (mock) in C57BL/6 mice fed with the MCD diet for 6 weeks. […]
Tissue (liver, intestine, spleen and kidney) from MCD- and MCS-fed mice (Casp-3−/−, WT, treated with VNN1 siRNA and controls) was homogenized using the FastPrep 24 bead homogenization system. […] The concentration and purity of RNA was assessed by NanoDrop (Thermo Scientific). Quantitative Real time PCR was performed on a BioRad Cycler (BioRad) by using SYBRGreen real time PCR master mix (Kapabiosystem, Woburn, Mass., USA) according to the manufacturer instructions. […]

## CCCCCCCCCCCCCCCC(=O)O [palmitic acid]
  VNN1 expression in MPs from FFA-treated cells (Western blot): expressed

## CCCCCCCC/C=C\CCCCCCCC(=O)O [oleic acid]
  VNN1 expression in MPs from FFA-treated cells (Western blot): not
